Consider 8 compounds from US6504058B1 (priority 1997, dated 2003).

The structures appear in SMILES notation.

The test system of assay [1] is Erysiphe graminis f. sp. tritici. Kind of assay: Test A: wheat powdery mildew, preventive spray on wheat seedlings, disease rating. Particulars: 200 ppm test suspension sprayed to run-off (equivalent to 500 g/ha) on wheat seedlings; 100 = 100% disease control, 0 = no control; # = significant activity. In kind it is in vivo, Erysiphe graminis f. sp. tritici (on wheat seedlings). Summed up: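 Compounds at 200 ppm (acetone 3%, 250 ppm Trem 014 in water; equivalent to 500 g/ha) sprayed to run-off on wheat seedlings, inoculated with spore dust the following day. Plants held at 20° C. for 7 days, then rated 0–100% disease control relative to untreated controls.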

Assay [2] has as its system Pyricularia oryzae. It is filed as in vivo, Pyricularia oryzae (on rice seedlings). The note with it: 200 ppm test suspension sprayed to run-off (equivalent to 500 g/ha) on rice seedlings; 100 = 100% disease control, 0 = no control; # = significant activity.
Assay [3] deals with Puccinia recondita. Kind of assay: Test B: wheat leaf rust, preventive spray on wheat seedlings, disease rating. Particulars: 200 ppm test suspension sprayed to run-off (equivalent to 500 g/ha) on wheat seedlings; 100 = 100% disease control, 0 = no control; # = significant activity. In kind it is in vivo, Puccinia recondita (on wheat seedlings). Summed up: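 Wheat seedlings were sprayed to run-off with 200 ppm suspensions (≈500 g/ha; 3% acetone, 250 ppm Trem 014) and inoculated with Puccinia recondita spores the next day. Plants were held 24 h saturated at 20 °C, then 6 days at 20 °C. Disease control was rated 0-100 relative to untreated controls.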

Assay [4] relates to Botrytis cinerea. Kind of assay: Test E: gray mold, preventive spray on cucumber seedlings, disease rating. It is filed as in vivo, Botrytis cinerea (on cucumber seedlings). The note with it: 200 ppm test suspension sprayed to run-off (equivalent to 500 g/ha) on cucumber seedlings; 100 = 100% disease control, 0 = no control; # = significant activity. Summed up: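 Cucumber seedlings sprayed to run-off with 200 ppm suspension (equivalent to 500 g/ha), inoculated next day with B. cinerea spores. Kept 48 h saturated at 20 °C, then 5 days in growth chamber at 20 °C; disease control rated 0–100 relative to controls.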

Assay [5] deals with Phytophthora infestans. In kind it is in vivo, Phytophthora infestans (on tomato seedlings). Particulars: 200 ppm test suspension sprayed to run-off (equivalent to 500 g/ha) on tomato seedlings; 100 = 100% disease control, 0 = no control; # = significant activity.

As to `CC(NC(=O)C1(C)CC(Cl)(CCl)C1)c1ccc2ccccc2c1` (stereo not shown) [compound 63], in assay [1], the “Test A disease control rating (wheat powdery mildew)” value (shortened to “Test A disease control rating”) is 0 (a rating of 0 indicates no disease control (relative to the controls)). Also, the “Test C disease control rating (rice blast)” value (“Test C disease control rating” for short) in assay [2] amounted to 53%. Further, in assay [3], the “Test B disease control rating (wheat leaf rust)” value (from here on “Test B disease control rating”) is 0 (a rating of 0 indicates no disease control (relative to the controls)). The “Test E disease control rating (gray mold)” value in assay [4] is given as 0 (a rating of 0 indicates no disease control (relative to the controls)). Further, in assay [5], the “Test D disease control rating (potato and tomato late blight)” value (shortened to “Test D disease control rating”) was 37%.
Consider `CC(NC(=O)C1(C)CC(Cl)(CCl)C1)c1ccc2ccccc2c1` (stereo not shown) [compound 64], for which the “Test A disease control rating” value in assay [1] is 0 (a rating of 0 indicates no disease control (relative to the controls)). Also, in assay [2], the “Test C disease control rating” value was 53%. The “Test B disease control rating” value in assay [3] is 0 (a rating of 0 indicates no disease control (relative to the controls)). Besides, the “Test E disease control rating (gray mold)” value in assay [4] was 0 (a rating of 0 indicates no disease control (relative to the controls)). Further, the “Test D disease control rating” value in assay [5] is given as 91# %.
As to `CC(NC(=O)C1(C)CC(F)(F)C1)c1ccc(Br)cc1` (stereo not shown) [compound 67], in assay [1], the “Test A disease control rating” value stood at 63%. The “Test C disease control rating” value in assay [2] is given as 99# %. The “Test B disease control rating” value in assay [3] was 0 (a rating of 0 indicates no disease control (relative to the controls)). Further, in assay [4], the “Test E disease control rating (gray mold)” value is reported as 19%. Moreover, in assay [5], the “Test D disease control rating” value is 43%.
For `CC(NC(=O)C1(C)CC(C)(Br)C1)c1ccc(Cl)cc1Cl` (stereo not shown) [compound 68], the “Test A disease control rating” value in assay [1] is given as 0 (a rating of 0 indicates no disease control (relative to the controls)). Besides, the “Test C disease control rating” value in assay [2] is given as 97# %. The “Test B disease control rating” value in assay [3] was 0 (a rating of 0 indicates no disease control (relative to the controls)). Moreover, the “Test E disease control rating (gray mold)” value in assay [4] is listed as 0 (a rating of 0 indicates no disease control (relative to the controls)). For the same compound, in assay [5], the “Test D disease control rating” value is on record as 24%.
As to `CC(NC(=O)C1(C)CC(C)(Br)C1)c1ccc(Cl)cc1Cl` (stereo not shown) [compound 69], the “Test A disease control rating” value in assay [1] is on record as 0 (a rating of 0 indicates no disease control (relative to the controls)). For the same compound, in assay [2], the “Test C disease control rating” value is on record as 100# (a rating of 100 indicates 100% disease control). In addition, the “Test B disease control rating” value in assay [3] is 0 (a rating of 0 indicates no disease control (relative to the controls)). Besides, the “Test E disease control rating (gray mold)” value in assay [4] is on record as 0 (a rating of 0 indicates no disease control (relative to the controls)). The “Test D disease control rating” value in assay [5] was determined as 24%.
`COc1cc(Br)ccc1C(C)NC(=O)C1(C)CC(C)(F)C1` (stereo not shown) [compound 70]: the “Test A disease control rating” value in assay [1] is 0 (a rating of 0 indicates no disease control (relative to the controls)). The “Test C disease control rating” value in assay [2] was 97# %. For the same compound, in assay [3], the “Test B disease control rating” value was 0 (a rating of 0 indicates no disease control (relative to the controls)). Also, the “Test E disease control rating (gray mold)” value in assay [4] was 19%. Further, the “Test D disease control rating” value in assay [5] is on record as 20%.
Take `CC(NC(=O)C1(C)CC(C)(Cl)C1)c1ccc(Cl)cc1Cl` (stereo not shown) [compound 71]: the “Test A disease control rating” value in assay [1] was 61%. Further, the “Test C disease control rating” value in assay [2] is reported as 100# (a rating of 100 indicates 100% disease control). For the same compound, the “Test B disease control rating” value in assay [3] was 0 (a rating of 0 indicates no disease control (relative to the controls)). Moreover, the “Test E disease control rating (gray mold)” value in assay [4] was 0 (a rating of 0 indicates no disease control (relative to the controls)). Besides, the “Test D disease control rating” value in assay [5] is on record as 100# (a rating of 100 indicates 100% disease control).
For the compound `CC(NC(=O)C1(C)CC(C)(Cl)C1)c1ccc(Cl)cc1Cl` (stereo not shown) [compound 72], the “Test A disease control rating” value in assay [1] is 91# %. Besides, in assay [2], the “Test C disease control rating” value is given as 99# %. Besides, in assay [3], the “Test B disease control rating” value is 0 (a rating of 0 indicates no disease control (relative to the controls)). In assay [4], the “Test E disease control rating (gray mold)” value is reported as 0 (a rating of 0 indicates no disease control (relative to the controls)). Also, in assay [5], the “Test D disease control rating” value came to 66%.
